Consider ten compounds from PubChem BioAssay (NCI).

Assay in all cases: inhibition of tumour cell growth, NCI panel, 48 h
The test system of test [1] is EKVX NSCLC.
Test [2] concerns COLO 205 colon.
In test [3] the test system is IGROV1 ovarian.
The subject of test [4] is K-562 leukemia.
The test system of test [5] is HL-60(TB) leukemia.
Test [6] concerns NCI-H23 lung.
Test [7] deals with HS 578T breast.
Test [8] deals with SK-MEL-5 melanoma.

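A five-concentration, 48-hour dose response in 96-well plates underlies each endpoint, interpolated linearly between surrounding concentrations. Here, GI50 denotes the concentration required for 50% inhibition of growth. TGI: concentration producing complete growth inhibition.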

For `COc1cccc2c1n([O-])c1cccc(OC)c1[n+]2=O`, the GI50 is 7.26 µM in test [1]; 12.1 µM in test [2]; 4.8 µM in test [3]; 6.13 µM in test [4]; 3.23 µM in test [5]; 4.82 µM in test [6]. For the same compound, the GI50 in test [7] was 8.87 µM; in test [8], 3.59 µM. Also, the TGI was 37 µM in test [1]; 28.5 µM in test [2]; 66.1 µM in test [3]; > 100 µM in test [4]; 9.12 µM in test [5]; 28 µM in test [6]. For the same compound, the figures for the TGI in test [7] and in test [8] were 60.1 µM and 14.9 µM, respectively.
With `N#CC1C=Cc2c(ccc3ccccc23)N1C(=O)c1ccccc1` (configuration not stated), the GI50 in test [1] is 0.31 µM; in test [2], 0.251 µM; in test [3] it was 0.105 µM; in test [4] it was 0.0537 µM; in test [5], 0.171 µM; in test [6], 0.433 µM. Besides, the GI50 in test [7] is 1.31 µM; in test [8] it was 0.132 µM. Moreover, the TGI in test [2] was 0.706 µM; in test [3], 3.23 µM; in test [4] it was > 100 µM; in test [6], > 100 µM; in test [8], > 42.5 µM.
Turning to `O=C(O)C(Oc1nc(=S)[nH]c(=S)[nH]1)(c1ccc(Cl)cc1)c1ccc(Cl)cc1`, the TGI in test [1], in test [2], in test [3], in test [4], in test [5] and in test [6] was > 100 µM each time. Besides, the TGI in test [7] and in test [8] was > 100 µM each time.
With `O=C(c1ccccc1)c1c(C(F)(F)F)n([O-])c2ccc(C(F)(F)F)cc2[n+]1=O`, the GI50 is 0.234 µM in test [1]; 0.384 µM in test [2]; 0.205 µM in test [3]; 0.319 µM in test [4]; 0.084 µM in test [5]; 0.503 µM in test [6]. Also, the GI50 in test [7] was 0.537 µM; in test [8] it was 0.504 µM. In addition, the TGI in test [1] was 0.597 µM; in test [2], 0.879 µM; in test [3], 0.408 µM; in test [4], 0.779 µM; in test [5], 0.309 µM; in test [6], 1.13 µM. Moreover, the TGI in test [7] was 1.33 µM; in test [8], 0.933 µM.
For the compound `C[C@@H]1COCCN1c1cc(C2(O)C[C@H]3CC[C@@H](C2)O3)c2cnn(-c3ccn[nH]3)c2n1` (some centres not stated), the GI50 in test [1] is 0.139 µM; in test [2] it was 0.253 µM; in test [3], 0.0453 µM; in test [4], 0.063 µM; in test [5], 0.172 µM; in test [6], 0.0286 µM. Moreover, the GI50 in test [7] was 0.0479 µM; in test [8], 0.107 µM. In addition, the TGI in test [1] was 0.845 µM; in test [2], 2.52 µM; in test [3], 0.977 µM; in test [4], > 100 µM; in test [6], 0.188 µM; in test [7] it was 0.556 µM. Also, in test [8], the TGI was found to be 0.279 µM.
As for `C[C@@H](Nc1nc(Nc2ccc(F)c(Cl)c2)nc2ccccc12)C1CC1`, the GI50 in test [1] is 2.72 µM; in test [2], 1.71 µM; in test [3], 3.06 µM; in test [4] it was 2.82 µM; in test [5], 2.45 µM; in test [6], 1.48 µM. Moreover, the GI50 in test [7] is 6.02 µM; in test [8] it was 1.55 µM. For the same compound, the TGI in test [1] worked out at 12.4 µM; in test [2], 3.46 µM; in test [3] it was 17.7 µM; in test [4], 9.75 µM; in test [5] it was 6.32 µM; in test [6], 9.34 µM. Moreover, the TGI was 25.6 µM in test [7] and 2.96 µM in test [8].
For `CC(=O)c1cc(O)c2ccccc2c1O`, the GI50 in test [1] was 22.1 µM; in test [2] it was 19 µM; in test [3], 13 µM; in test [4] it was 23.1 µM; in test [5], 25.5 µM; in test [6] it was 20.2 µM. The GI50 is 39.7 µM in test [7] and 16.3 µM in test [8]. Also, the TGI in test [1] stood at 81.2 µM; in test [2], 34.4 µM; in test [3] it was 29.3 µM; in test [4] it was 67.6 µM; in test [5], 62.5 µM; in test [6], 53.7 µM. In addition, the TGI in test [7] was > 100 µM; in test [8] it was 30.2 µM.
Regarding `Cc1cc(Nc2cc(N)ncn2)c(=O)n2c1C(=O)NC21CCCCC1`, the GI50 in test [1] is > 100 µM; in test [2] it was > 100 µM; in test [3] it was 46.7 µM; in test [4], > 100 µM; in test [5], > 100 µM; in test [6] it was > 100 µM. In addition, the figures for the GI50 in test [7] and in test [8] were 54.3 µM and > 100 µM, respectively. For the same compound, the TGI in test [1], in test [2], in test [3], in test [4], in test [5] and in test [6] was > 100 µM in each case. Besides, the TGI in test [7] and in test [8] was > 100 µM in each case.
Consider `CC(=C/c1ccccc1)/C=C1/NC(=S)N(/C=C2\C(=O)Oc3ccccc3C2=O)C1=O`, for which the TGI in test [1], in test [2], in test [3], in test [4], in test [5] and in test [6] was > 100 µM throughout. The TGI is > 100 µM in test [7] and > 86.9 µM in test [8]. Moreover, the GI50 was 86.7 µM in test [3] and > 100 µM in test [7].
Consider `Cc1cc(I)cc(CN(C)CCCN2CCN(C)CC2)c1O`, for which the GI50 was 79.3 µM in test [1]; 19.3 µM in test [2]; 40.5 µM in test [3]; 14.6 µM in test [4]; 27.1 µM in test [5]; 82.4 µM in test [6]. Further, the GI50 in test [7] was 23.6 µM; in test [8], 16.1 µM. The TGI is > 100 µM in test [1]; 42 µM in test [2]; > 100 µM in test [3]; 40.1 µM in test [4]; > 57.9 µM in test [5]; > 100 µM in test [6]. Further, the TGI in test [7] is > 68.1 µM; in test [8], 29.9 µM.
